This is an account of results in patent US7211246B2, “Compositions comprising oestrone-3-0-sulphamate and trail (TNF-related apoptosis inducing ligand)” (Sterix Limited, priority 2001, dated 2007).

In one series the test system is DR5 protein. The series can be described thus: Western blot of DR5 protein levels in Cal51 cells. As to conditions: 48 hours, 0.05, 0.5 and 5 μM. Format: cell-based. As to the method: FIG. 6. […] Western blot showing DR5 protein levels following treatment of Cal51 cells for 48 hours with 0, 0.05, 0.5 and 5 μM of 2-MeOEMATE or 2-EtEMATE. PCNA levels represent corresponding loading controls.
Protein lysates were prepared from CAL51 cells treated with various compounds and analysed for expression of DR5 by immunoblotting (FIG. 6).

In a further series the test system is caspase 3. Put plainly: Western blot of caspase 3 activation in Cal51 cells. The class given is cell-based. As to the method:
(§1) FIG. 3. Effect of 2-MeOE2bisMATE on caspase 8 and caspase 3 activation and PARP cleavage in Cal51 cells. Western blots showing caspase 8 and caspase 3 unprocessed and active fragments and PARP uncleaved and cleaved products following treatment of Cal51 cells with solvent, 0.05, 0.5 or 5 μM 2-MeOE2bisMATE for 48 hours.
(§2) FIG. 5. Effect of 2-MeOE2bisMATE on the timing of caspase 3 and caspase 8 activation and PARP cleavage in Cal51 cells. Western blots showing caspase 3, caspase 8 and PARP unprocessed and cleaved products at 0, 8, 16, 24 and 48 hrs following treatment of Cal51 cells with 5 μM 2-MeOE2bisMATE for 48 hrs or untreated for 48 hrs (48NT).
FIG. 7. Effect of combined treatment of 2-EtEMATE or 2-MeOEMATE and TRAIL on caspase 3 activation in Cal51 cells. Western blots showing caspase 3 activation following treatment of Cal51 cells for 48 hours with solvent, 250 ng/ml TRAIL and 5 μM 2-EtEMATE or 2-MeOEMATE in the presence or absence of 250 ng/ml TRAIL. PCNA levels represent corresponding loading controls. 1, control; 2, THF solvent; 3, TRAIL; 4, 2-EtEMATE; 5,2-EtEMATE+TRAIL; 6, control; 7, THF solvent; 8, TRAIL; 9, 2-MeOEMATE; 10, 2-MeOEMATE+TRAIL
To determine whether caspases might play a role in cell death induced by 2-MeOE2bisMATE and other sulfamoylated oestrogen derivatives, we examined the expression of caspase 3, caspase 8 and PARP by immunoblotting (FIG. 3). […] Therefore, cell death induced by the 2-MeOE2bisMATE in Cal51 cells is associated with caspase activation.
There are two major pathways of apoptosis; cell surface death receptors activate caspases directly via activation of caspase 8 whereas other apoptotic stimuli operate via triggering the release of cytochrome c from mitochondria which subsequently activates caspases. Both pathways ultimately result in activation of caspase 3 and PARP cleavage. Since activation of caspase 8 is an indicator for the direct involvement of death receptors, it is important to determine whether activation of caspase 8 by 2-MeOE2bisMATE precedes or follows caspase 3 activation. We therefore performed time course experiments in Cal51 cells treated with 2-MeOE2bisMATE to order the activation events. Caspase 3 activation was first detected at 16 hours and as expected was followed by PARP cleavage at 24 hours (FIG. 5). Caspase 8 activation was a relatively late event, first detected at 48 hours. Therefore activation of caspase 3 induced by 2-MeOE2bisMATE precedes activation of caspase 8.
To further explore the mechanism for co-operation between sulfamoylated oestrones and TRAIL, we analysed activation of caspase 3 (FIG. 7). […] Therefore, sulfamoylated oestrones and TRAIL cooperate to activate caspase 3.

The next series deals with PARP. The series can be described thus: Western blot of PARP cleavage in Cal51 cells. Format: cell-based. The method, then:
as §1, §2
(§3) To determine whether caspases might play a role in cell death induced by 2-MeOE2bisMATE and other sulfamoylated oestrogen derivatives, we examined the expression of caspase 3, caspase 8 and PARP by immunoblotting (FIG. 3). […]
(§4) There are two major pathways of apoptosis; cell surface death receptors activate caspases directly via activation of caspase 8 whereas other apoptotic stimuli operate via triggering the release of cytochrome c from mitochondria which subsequently activates caspases. […] Caspase 3 activation was first detected at 16 hours and as expected was followed by PARP cleavage at 24 hours (FIG. 5). Caspase 8 activation was a relatively late event, first detected at 48 hours. […]

A further series concerns caspase 8. The series can be described thus: Western blot of caspase 8 activation in Cal51 cells. The class given is cell-based. The method, then:
as §1, §2, §3, §4

The next series concerns CAL51 cells. Put plainly: TUNEL assay of apoptosis in Cal51 cells with or without caspase inhibitor ZVAD-fmk. Format: cell-based. As to conditions: 5 μM 2-MeOE2bisMATE with 50 μM zVAD-fmk, 3 days. The method, then:
FIG. 4. Effect of the caspase inhibitor ZVAD-fmk on 2-MeOE2bisMATE induced apoptosis in Cal51 cells. TUNEL assay showing % apoptosis of cells untreated or following treatment with 50 μM ZVAD-fmk, 5 μM 2-MeOE2bisMATE or 5 μM 2-MeOE2bisMATE and 50 μM zVAD-fmk for 3 days. Histograms are overlays for control cells stained in the absence of TdT enzyme (bold) or cells stained with TUNEL reaction mix (open).
To determine whether the activation of caspases was important for cell killing, we tested whether a broad range chemical caspase inhibitor interfered with apoptosis. Cells were treated with 2-MeOE2bisMATE in the presence and absence of the caspase inhibitor ZVAD-fmk and cell death was analysed using the TUNEL assay which measures the DNA cleavage associated with apoptosis. The induction of TUNEL positive cells by 2-MeOE2bisMATE was reduced by 60% in the presence of zVAD-fmk (FIG. 4). Therefore 2-MeOE2bisMATE requires activation of caspases for optimal induction of apoptosis.

For series [1] the following is noted: in vivo; cited from earlier work.
Setting [2] is: Cal51 cells, 5 μM, time course 0-48 hrs.
The mark [3] stands for this setting: Cal51 cells, 0.05, 0.5 or 5 μM, 48 hours.

As for `COc1cc2c(cc1OS(N)(=O)=O)CCC1C2CCC2(C)C(OS(N)(=O)=O)CCC12` (stereo not shown) [2-MeOE2bisMATE, 2-methoxyoestrone-3-O,17-bissulphamate], the “DR5 protein levels by western blot” value with DR5 protein is “no significant change”. For the same molecule, the “time at which caspase 3 activation was first detected” value in the series with caspase 3 (setting [2]) turned out to be 16 h. For the same molecule, in the series with caspase 3 (setting [3]), the “activation of caspase 3” value is reported as “dose dependent activation”. In addition, the “activation of caspase 3, synergistic effect with TRAIL” value in the series on caspase 3 (in combination with TRAIL) is listed as “increased activation of caspase 3”. In addition, the “time of PARP cleavage” value with PARP (setting [2]) is 24 h. Further, in the series with PARP (setting [3]), the PARP cleavage entry is on record as “Cleavage of PARP”. Further, the “time at which caspase 8 activation was first detected” value with caspase 8 (setting [2]) was found to be 48 h. The “activation of caspase 8” value in the series with caspase 8 (setting [3]) was “dose dependent activation”. The “reduction of induction of TUNEL positive cells in the presence of zVAD-fmk” value in the series on CAL51 cells came out at 60%.

With `C[C@]12CC[C@@H]3c4ccc(OS(=O)(=O)O)cc4CC[C@H]3[C@@H]1CCC2=O` [E1S, oestrone sulphate], the half-life in blood in series [1] was 10 to 12 h.
